This note sets out measurements from patent US20150322001A1, “OMEGA-3 ANALOGUES” (The University of Sydney, priority 2012, published 2015).

Data set [1] concerns MDA-MB-231 cells. Put plainly: MTT assay, inhibition of proliferation of MDA-MB-231 cells. The format is cell-based, human. The conditions noted are these: Homo sapiens, MTT reduction, 24 h. As to the method:
The synthesized compounds given in Table 1 were tested for their activity in inhibiting the proliferation of MDA-MB-231 cells.
• 1. Cell culture and cell treatment: Breast cancer MDA-MB-231 cells were maintained in monolayers at 37° C. in DMEM containing penicillin and streptomycin, L-glutamine and 10% fetal bovine serum in an atmosphere of 95% air and 5% CO2. Cells were seeded into multi-well plates at 5×10^4 cells/mL; media was replaced 24 h later with fresh serum-free DMEM containing one of the test compounds in DMSO. DMSO was added to control cells at a final concentration of 0.1%. • 2. MTT assay: MDA-MB-231 cells were seeded in 96 well plates (0.2 mL/well), treated with compounds at 0.01, 0.1, 0.5, 1, 5 and 10 μM for 24 h. MTT (25 μL of 2.5 mg/mL solution) was added to each well for 2 h, after which MTT and media were removed. The blue formazan product formed from MTT by live cells was dissolved in DMSO (100 μL/well) and quantified spectrophotometrically at 540 nm in a multilabel counter. IC50s were calculated using GraphPad Prism (Prism 5.01). • 3. Caspase 3 activity: MDA-MB-231 cells were seeded in 96 well plates (0.2 mL/well), and were treated with compounds at 0.1, 0.5 and 1 μM for 24 h. Caspase 3 activity was quantified using the Caspase-Glo 3/7 assay kit according to manufacturer's protocol (Promega). Briefly, after 24 h treatment, fresh serum-free media was added to wells. Cells were equilibrated at room temperature for 30 min, caspase 3/7 substrate in lysis buffer was added and the luminescence was measured. Relative caspase 3/7 activity was calculated as [(luminescence in treatment−luminescence in control)/luminescence in control×100%]. • 4. Annexin V assay: MDA-MB-231 cells were seeded in 6 well plates (3 mL/well), and were treated with compounds at 0.1, 0.5 and 1 μM for 24 h. The apoptotic cells were quantified by Annexin V staining according to the manufacture's protocol (BD Biosciences). Briefly, after 24 h treatment, the media and harvested cells were collected, followed by PBS washes. Cells were stained with Annexin V and PI in binding buffer for 15 min at room temperature and quantified by flow cytometry (BD Biosciences). The apoptotic cells (%) were calculated as [(Annexin V positive cells in treatment−Annexin V positive cells in control)/Annexin V positive cells in control×100%]. • 5. Matrigel assay: MDA-MB-231 cells were trypsinized and resuspended in serum-free DMEM media (3.5×10^6 cells/mL). The cell suspension was mixed 1:1 with Matrigel solution (Bio Scientific). Aliquots (20 μL containing 3.5×10^4 cells) were placed into 6-well tissue-culture dishes to form well-defined droplets and incubated at 37° C. for 5 min to enable semi-solidification. Migration media was freshly made as DMEM containing 20% fetal bovine serum, epidermal growth factor 10 pg/mL, hydrocortisone 0.4 ng/mL, vascular endothelial growth factor (VEGF, 1 pg/mL), basic fibroblast growth factor (bFGF, 20 pg/mL), insulin-like growth factor-1 (40 pg/mL), ascorbic acid (2 ng/mL) and heparin (45 ng/mL). Compounds were added in migration media (3 mL/well) and plates were then incubated for 24 h. Cells that migrated out of droplets were scored using phase-contrast microscopy and digital image analysis (Olympus). • 6. Real-time RT PCR: Cell droplets from migration assays were collected, and total RNA was extracted using Tri Reagent (Astral Scientific) according to the manufacturer's protocol. RNA samples were treated with DNase (Promega) and gene expression was quantified using an Express Onestep Superscript qRT-PCT kit (Invitrogen) and gene-specific primers: heparanase (forward) […] and (reverse) GCAGCAACTTTGGCATTTC, integrin-α3 (forward) […] and (reverse) […], actin (forward) […] and (reverse) […]. The cycling conditions (Roto-Gene™ 6000; Corbett Research) were as follows: 95° C. (15 min); 40 cycles of denaturation (95° C., 30 s); annealing (60° C., 1 min); elongation (72° C., 1 min). […]
On the technique in general: Tetrazolium dyes change colour on reduction, which living cells bring about.

Data set [2] has as its system MDA-MB-231 cells. The data set is described as follows: Caspase 3 activity (Caspase-Glo 3/7) in MDA-MB-231 cells. The data set is classed as cell-based, human. The conditions noted are these: 0.1 μM, FIG. 1. As to the method: (§1) • 1. Cell culture and cell treatment: Breast cancer MDA-MB-231 cells were maintained in monolayers at 37° C. in DMEM containing penicillin and streptomycin, L-glutamine and 10% fetal bovine serum in an atmosphere of 95% air and 5% CO2. Cells were seeded into multi-well plates at 5×10^4 cells/mL; media was replaced 24 h later with fresh serum-free DMEM containing one of the test compounds in DMSO. DMSO was added to control cells at a final concentration of 0.1%. • 2. MTT assay: MDA-MB-231 cells were seeded in 96 well plates (0.2 mL/well), treated with compounds at 0.01, 0.1, 0.5, 1, 5 and 10 μM for 24 h. […] The blue formazan product formed from MTT by live cells was dissolved in DMSO (100 μL/well) and quantified spectrophotometrically at 540 nm in a multilabel counter. IC50s were calculated using GraphPad Prism (Prism 5.01). • 3. […] Caspase 3 activity was quantified using the Caspase-Glo 3/7 assay kit according to manufacturer's protocol (Promega). […] Cells were equilibrated at room temperature for 30 min, caspase 3/7 substrate in lysis buffer was added and the luminescence was measured. Relative caspase 3/7 activity was calculated as [(luminescence in treatment−luminescence in control)/luminescence in control×100%]. • 4. […] The apoptotic cells were quantified by Annexin V staining according to the manufacture's protocol (BD Biosciences). […]

For data set [3], the system named is MDA-MB-231 cells. The data set is described as follows: Annexin V assay (apoptotic cells) in MDA-MB-231 cells. The note with it: FIG. 2. The format is cell-based, human. As to the method:
as §1

Data set [4] deals with MDA-MB-231 cells. Put plainly: Matrigel assay, migration of MDA-MB-231 cells out of matrigel droplets. The format is cell-based, human. As to the method:
This supports the finding that these compounds are effective against metastatic cancer cells.
(§2) • 1. Cell culture and cell treatment: Breast cancer MDA-MB-231 cells were maintained in monolayers at 37° C. in DMEM containing penicillin and streptomycin, L-glutamine and 10% fetal bovine serum in an atmosphere of 95% air and 5% CO2. Cells were seeded into multi-well plates at 5×10^4 cells/mL; media was replaced 24 h later with fresh serum-free DMEM containing one of the test compounds in DMSO. DMSO was added to control cells at a final concentration of 0.1%. • 2. MTT assay: MDA-MB-231 cells were seeded in 96 well plates (0.2 mL/well), treated with compounds at 0.01, 0.1, 0.5, 1, 5 and 10 μM for 24 h. […] The blue formazan product formed from MTT by live cells was dissolved in DMSO (100 μL/well) and quantified spectrophotometrically at 540 nm in a multilabel counter. IC50s were calculated using GraphPad Prism (Prism 5.01). • 3. […] Caspase 3 activity was quantified using the Caspase-Glo 3/7 assay kit according to manufacturer's protocol (Promega). […] Cells were equilibrated at room temperature for 30 min, caspase 3/7 substrate in lysis buffer was added and the luminescence was measured. Relative caspase 3/7 activity was calculated as [(luminescence in treatment−luminescence in control)/luminescence in control×100%]. • 4. […]

A further data set relates to MDA-MB-468 cells. Put plainly: MTT reduction in MDA-MB-468 cells. The data set is classed as cell-based. The conditions noted are these: compared with MDA-MB-231.
A further data set deals with MCF-7 cells. The data set is described as follows: MTT reduction in MCF-7 cells. The format is cell-based. The note with it: compared with MDA-MB-231. The procedure: These are also breast cancer cell lines, but are less aggressive than the MDA-MD-231 cells.
as §2

For data set [5], the system named is human MDA-MB-231 breast cancer cell xenografts. The data set is described as follows: In vivo dose-response study of compound 29, MDA-MB-231 xenografts in nude mice. The note with it: for mouse body weight gain or loss: FIG. 7. As to the method: One of the synthesised compounds given in Table 1 (compound 29, reproduced below) was the subject of an in vivo dose-response study in nude mice with human MDA-MB-231 breast cancer cell xenografts. One group received compound 15 in parallel.
nu/nu Balb/c; Age: 6 weeks at commencement of study; Gender: female
control, compound 29 (2.5 mg/kg), compound 29 (10 mg/kg), compound 29 (40 mg/kg) and compound 15 (10 mg/kg); 5 mice/group
human MDA-MB-231 cells, 4×10^5 cells/100 μl (Matrigel:PBS 1:1)/mouse, subcutaneous injection into the 4th mammary fat pad.
after 4 days animals received compound 29 at 40, 10 and 2.5 mg/kg doses (in corn oil, Sigma, and 8% DMSO), or compound 15 at 10 mg/kg in corn oil at 4% DMSO, 6 days each week, for 38 days. Control: 8% DMSO in corn oil.
weighed six days a week; tumour sizes measured with calipers every 3 to 4 days.

The subject of data set [6] is MDA-MB-231 cells. The data set is described as follows: Proapoptotic activity in MDA-MB-231 cells (JC-1 staining, confluence). The data set is classed as cell-based, human. The procedure:
Several of the compounds were tested for the capacity to induce apoptosis in MDA-MB-231 cells (10 μM, 24 hr treatments). […] In view of the finding with compound 29 a concentration-relationship was developed with caspase-3/7 activity (an established marker of apoptosis) as the endpoint (FIG. 11).

For the compound `Cc1ccc(NC(=O)NCCCCCCCCCCCCCCCC(=O)O)cc1` [Compound 16, 16-{[(4-methylphenyl)carbamoyl]amino}hexadecanoic acid], the IC50 in the data set on MDA-MB-231 cells [1] turned out to be 750 nM; in the data set on MDA-MB-231 cells [4] (Homo sapiens, MDA-MB-231, matrigel assay, read-out: IC50 (concentration at which migration is inhibited to 50% of control)), 3800 nM. For the same compound, the caspase-3 activity entry in the data set with MDA-MB-231 cells [2] was “particularly good”. In addition, the “Annexin V staining (early apoptosis)” value in the data set on MDA-MB-231 cells [3] was “increases this substantially”.

The compound `CCNC(=O)NCCCCCCCCCCCCCCCC(=O)O` [Compound 19, 16-[(ethylcarbamoyl)amino]hexadecanoic acid] yielded an IC50 in the data set with MDA-MB-231 cells [1] of 1800 nM. For the same compound, the “inhibition of MTT reduction” value with MDA-MB-468 cells and in the data set with MCF-7 cells was “inhibited MTT reduction” throughout. Besides, the “migration of cells in the matrigel assay” value in the data set on MDA-MB-231 cells [4] (10 μM) is on record as 61±5 % of control.

`O=C(O)CCCCCCCCCCCCCCCNC(=O)Nc1ccc(Cl)c(C(F)(F)F)c1` [Compound 29, 16-({[4-chloro-3-(trifluoromethyl)phenyl]carbamoyl)amino}hexadecanoic acid]: in the data set with MDA-MB-231 cells [1], the IC50 was found to be 1100 nM. Besides, the “tumour growth rate and volume at later time points (after day 25)” value in data set [5] (2.5 mg/kg, FIG. 9) was “larger than the compound 29 (40 mg/kg) group”. In data set [5] (10 mg/kg, FIG. 9), the tumour growth entry was “decreased from day 32”. Further, the “tumour weights versus control and 2.5 mg/kg groups” value in data set [5] (40 mg/kg, day 38) is “significantly smaller”. The “tumour volumes versus control and 2.5 mg/kg groups” value in data set [5] (40 mg/kg, day 38, FIG. 9) is “significantly smaller”. In addition, the “toxicity of the treatment (growth rates)” value in data set [5] (all dose groups, 38 days) is recorded as “non-toxic”. The “mouse body weight gain or loss” value in data set [5] (compound 29 2.5 mg/kg, 38 days) was “gained weight at a steady and similar rate”; in data set [5] (compound 29 10 mg/kg, 38 days), “gained weight at a steady and similar rate”; in data set [5] (compound 29 40 mg/kg, 38 days) it was “gained weight at a steady and similar rate”. In addition, the “tumour foci in the peritoneal cavity” value in data set [5] (compound 29-treated mice (2.5, 10, 40 mg/kg), 38 days) is recorded as “No tumour foci were seen”. Moreover, the “JC-1 staining (mitochondrial damage)” value in the data set with MDA-MB-231 cells [6] (10 μM, 24 hr, FIG. 10) is given as “Increased JC-1 staining”. In the data set with MDA-MB-231 cells [6] (FIG. 12), the “confluence of treated cells” value was “decreased confluence”.
